Data as given in patent publication US9023788B2, “Methods compounds and pharmaceutical compositions for treating anxiety and mood disorders” (New York University, priority 2010, dated 2015).
“Also recorded” adds a separate entry of the source.

Legend:
LC α1-adrenoceptors [1] = assay: Novel cage test after LC microinjection; type: in vivo, rat
rats = conditions: cited from earlier work; for antidepressant effect after intracerebral administration: intracerebral infusion/injection
Swiss Webster male mice [2] = assay: Repeated open space forced swim (RFS) test; conditions: for immobility or distance swum versus vehicle, panel of currently available antidepressants: single acute i.p. dose 15 min prior, FIG. 14
LC α1-adrenoceptors [3] = assay: Home cage test after LC microinjection; type: in vivo, rat
Method: The animal was brought into the laboratory in its home cage and habituated in this cage beneath the video camera for 3 h prior to being injected. […] Food and water remained on the cage during the test. The longer interval (30 min) was used in the home vs. novel cage test because a low baseline activity was desired, and it was necessary to allow time for the disturbance caused by handling the animal to subside. As in the novel cage test, the home cage tests were repeated for a total of 2-3 tests at weekly intervals with different doses of the agonist. All experiments were carried out between 1100 and 1400 h. Following the last behavioral test, the animals were anesthetized with Nembutal and infused bilaterally with 250 nl of 2% methylene blue. Frozen (unfixed) brain sections were stained with cresyl violet for histological localization of cannula placement.
Videotapes were rated blind for gross movements (GMs), crosses of the cage midline (cage Xs), rearing responses, and time immobile (TI) by a trained observer. […] This included walks to a wall, rears, turns in place, and stretch and attend responses.
Animals showing significant dye penetration of the 4th ventricle were excluded from the study. Comparisons between two drug conditions in the novel cage experiment were evaluated by Bonferronicorrected dependent t-tests.

Swiss Webster male mice [4] = assay: Open field motor activity after ivt. infusion; type: in vivo, mouse; conditions: 15 min post infusion; 6FNE 3 nmoles ivt.
Method: Open field motor activity: Implanted mice were placed singly in an open field (46×46×33 cm clear Plexiglas) and permitted to explore freely and habituate for 60 min. The animals were then either left undisturbed in the field or removed and infused with either vehicle or 6FNE (3 nmoles) and replaced in the field for a further 15 min. For comparative purposes a further group of implanted animals, similarly habituated to the field, was given an i.p. injection of d-amphetamine (5 mg/kg) prior to the final 15 min exposure. Movement in the field was videorecorded and was subsequently rated blind for the number of quadrants entered as well as the amount of time spent not touching the walls (“time in the center of the field”).

[5] = tested on: Fos expression in LC, PVH, lateral septal nucleus and NAC; assay: Fos immunohistochemistry in stress- and motivation-related brain regions; type: in vivo, mouse; conditions: 6FNE 3 nmoles ivt.
Method: At 70 min after drug infusion all animals were deeply anesthetized with a combination of isoflurane and urethane (2.2 g/kg, i.p.) and perfused intracardially with 4% paraformaldehyde for subsequent immunohistochemistry and histological examination of the cannula tip with respect to the 4th ventricle.
Immunohistochemistry: Methods used for single and double-label Fos and Fos+tyrosine hydroxylase immunohistochemistry have been described in detail elsewhere (Stone, et al., Brain Research (2009) 1291:21-31). In brief, at 70 min after drug infusion deeply anesthetized (isoflurane plus urethane, 2.2 g/kg) mice were perfused intracardially with saline (25 ml) and 4% paraformaldehyde (45 ml), and the sucrose-treated brains were sectioned at 35 p and stained either singly for Fos (PVH, lateral septal nucleus, shell of nucleus accumbens (NAC)) or doubly for Fos and tyrosine hydroxylase (LC). Rabbit anti-fos (Oncogene Science 1:20,000) and chicken anti-tyrosine hydroxylase (Novus Biologicals, 1:5,000) were primary antibodies. Single-label staining involved nickel intensified-diaminobenzidine localization of the secondary biotinylated antibody and avidin-biotin-peroxidase complex. Double-label staining involved the use of Alexa-488 labeled secondary anti-rabbit and Alexa-594 labeled secondary anti-chicken antibodies. […] In all sections, to preclude biasing in the placement of counting frames, large frames comprising the total two dimensional extent of the target structures were counted for every Fos-positive cell by ImageJ. Double-labeled LC cells were defined as those having a fluorescently labeled cytoplasm (TH) and nucleus (Fos) greater than twice background fluorescence.

brain α-adrenoceptors = conditions: cited from earlier work
Swiss Webster male mice [6] = assay: Acute forced swim test (Porsolt); type: in vivo, mouse; conditions: for immobility versus vehicle: second swim, 6FNE ivt. peak dose 3 nmoles, DMI subacute i.p. 10 mg/kg
[7] = in vivo; cited from earlier work
[8] = tested on: Fos expression in LC, PVH, lateral septal nucleus and NAC; conditions: stimulation or blockade of LC α1-receptors (Stone et al. 2011); cited from earlier work
Swiss Webster male mice [9] = assay: Observation for sedation and signs of toxicity; type: in vivo, mouse; conditions: intracerebral 6FNE or peripheral dp6FNE, range of behavioral tests
Description: Sedation interferes with behavioral performance and is therefore a detrimental side effect to the treatment of major depressive illness in humans.
Although dp6FNE was designed to be a temporary treatment, it was of interest to determine how long it would remain effective if given repeatedly.

Swiss Webster male mice [10] = assay: Tail suspension test; type: in vivo, mouse; conditions: DMI subacute i.p. 10 mg/kg; for immobility, % vehicle control: 6FNE ivt. 3 nmoles; for immobility versus vehicle: acute ivt. 6FNE or DEX
Swiss Webster male mice [11] = assay: LPS model of depression (anhedonia); type: in vivo, mouse
Method: 1LPS model of depression (anhedonia): A modification of the Frenois et al (2007) model of LPS-induced anhedonia in the mouse was used to obtain a non-motoric index of depressed behavior. In this model, trained mice show a marked decrease in preference for a sweet solution 24-48 h after a systemic dose of LPS (830 μg/kg, i.p.), a time when they have recovered from the sickness behavior and anorexia caused by the acute effects of the toxin. For the model, the animals were first implanted with 4th ventricular cannulas as above and, during the recovery period, trained to drink diluted sweetened condensed milk solution (Magnolia 1:3 v:v milk:tap water) by 15 min presentations every other day for 7-10 d. […] Animals given i.p. injections were dosed 14, 12 and 0.5 h prior to the last test.

Swiss Webster male mice [12] = assay: Open field motor activity and anxiety (i.p. dp6FNE/prazosin); type: in vivo, mouse; conditions: 1 h; dp6FNE 0.1-3 mg/kg/prazosin; amphetamine 2 mg/kg i.p.
Method: For purposes of comparison, some animals received instead d-amphetamine, 2 mg/kg, i.p. Total quadrants entered and time in the center area of the field as a ratio to the total distance traveled were rated from videorecordings.

[13] = dpEPI 1 mg/kg i.p. in vehicle with prazosin 0.2 mg/kg + propranolol 0.5 mg/kg, 15 min prior
[14] = overall effect across depression tests
[15] = 5th swim, 6FNE ivt. peak dose, DMI subacute i.p. 10 mg/kg
[16] = 5th swim, acute ivt. 6FNE or DEX, DMI subacute i.p. 10 mg/kg

## CCN(CCCl)Cc1ccccc1Br [DSP4]
LC α1-adrenoceptors [1]; DSP4 10 days before test
  effect of pretreatment on behavioral effects of LC terazosin (novel cage) and PE (home cage): markedly attenuated the behavioral effects
LC α1-adrenoceptors [1]; DSP4 10 days before test, novel or home cages
  effect of pretreatment alone on exploratory activity: had no effect on exploratory activity

## Clc1cccc(Cl)c1N=C1NCCN1 [clonidine]
rats
  antidepressant effect after intracerebral administration: rapid antidepressant effects
Swiss Webster male mice [2]
  immobility or distance swum versus vehicle, panel of currently available antidepressants: dp6FNE/prazosin (1 mg/kg) was the only agent that either significantly reduced immobility

## CNCC(O)c1ccc(OC(=O)C(C)(C)C)c(OC(=O)C(C)(C)C)c1 (stereo not drawn) [dpEPI, dipivalyl-epinephrine]
Swiss Webster male mice [2]; [13]
  distance swum versus vehicle: increase in distance swum
  immobility versus vehicle: significant reduction in immobility

## CNC[C@H](O)c1cccc(O)c1 [PE, phenylephrine]
rats; 16 mg/kg, i.p.
  anti-immobility effect after systemic administration: only at a near lethal dose
rats
  antidepressant effect after intracerebral administration: produced antidepressant effects in the forced swim test
LC α1-adrenoceptors [1]; PE 10 nmoles/side coinjected with terazosin 3 nmoles/side in LC, 5 rats
  reversal of terazosin-induced inactivity (GMs, cage Xs, TI): completely reverse the terazosin-induced inactivity
LC α1-adrenoceptors [3]; PE 0, 0.03, 0.1, 0.3, 1 nmole/side in LC, 30 min
  GMs and cage Xs, dose-response: small dose-dependent increases
LC α1-adrenoceptors [3]; PE 1.0 nmole/side in LC, home cage, 0-15 min
  TI: 0.98 ± 0.98 min
LC α1-adrenoceptors [3]; PE 1.0 nmole/side in LC, home cage, 0-15 min, five rats
  GMS: 195.2 ± 25.3
LC α1-adrenoceptors [3]; Rears as % of GM, PE 1.0 nmole/side in LC, home cage, 0-15 min
  % Rears: 33.5 ± 8.0%
LC α1-adrenoceptors [3]; Xs as % of GM, PE 1.0 nmole/side in LC, home cage, 0-15 min
  % Xs: 12.3 ± 2.0%

## NCC(O)c1cc(O)c(O)cc1F (stereo not drawn) [6FNE, 6-fluoronorepinephrine]
Swiss Webster male mice [4]
  time in the center of the field: restored this behavior back to the level of the non-handled controls; also recorded: complete rescue
  total quadrants entered: no change in activity compared to the non-handled animals; also recorded: completely rescued the activity
[5]; [14]
  Fos expression in LC: significant overall reduction
  Fos expression in PVH: significant overall reduction
[5]; p<0.05
  Fos expression in lateral septal nucleus: overall increase
[5]; p<0.1
  Fos expression in NAC: overall increase
Brain α-adrenoceptors
  agonist efficacy: only known selective full agonist
Swiss Webster male mice [6]; ivt. 6FNE dose-response, one-way ANOVA
  climbing duration, overall effect: failed to show statistical significance
Swiss Webster male mice [6]
  immobility versus vehicle: differed significantly from vehicle
[7]
  passage of the blood brain barrier / uptake by the brain: does not pass the blood brain barrier
[8]
  neural activity of the LC measured from c-Fos expression: virtually complete cessation of the neural activity
Swiss Webster male mice [2]; [15]
  distance swum, % vehicle control: 193.4±22.8%
  immobility, % vehicle control: 36.7±9.2%
Swiss Webster male mice [2]; [16]
  distance swum versus vehicle: borderline increase in distance swum
Swiss Webster male mice [2]; 5th swim, acute ivt. 6FNE or DEX, DMI subacute i.p. 10 mg/kg, 10 mg/kg
  immobility versus vehicle: only 6FNE was effective; also recorded: dose-dependently reduced immobility
Swiss Webster male mice [2]; single ivt. infusion 0, 1, 3, 10 nmoles, Example 4, expected
  antidepressant response compared with ivt PE: more rapid or greater antidepressant response than PE
Swiss Webster male mice [9]
  sedation: no sedative effect
Swiss Webster male mice [10]
  immobility, % vehicle control: 24.7±7.8%
Swiss Webster male mice [10]; 10 mg/kg
  immobility versus vehicle: equally effective; also recorded: significant overall reduction in immobility
Swiss Webster male mice [11]; acute ivt. 6FNE 48 h after LPS 830 μg/kg i.p.
  sucrose preference: rescued by 6FNE
Swiss Webster male mice [11]; acute ivt. 6FNE in LPS-pretreated animals
  sucrose intake: inverted-U-shaped increase

## C[C@H](N)Cc1ccccc1 [amphetamine, d-amphetamine]
Swiss Webster male mice [12]
  motor activity (quadrants entered): highly significant increase on locomotion
  relative time in the center of the field: significantly tended to reduce it

## CNC[C@H](O)c1ccc(O)c(O)c1 [EPI, epinephrine]
Brain α-adrenoceptors
  agonist efficacy: full agonist

## CC(NC(C)(C)C)C(=O)c1cccc(Cl)c1 (stereo not drawn) [bupropion]
Swiss Webster male mice [2]
  immobility or distance swum versus vehicle, panel of currently available antidepressants: dp6FNE/prazosin (1 mg/kg) was the only agent that either significantly reduced immobility

## CNC1(c2ccccc2Cl)CCCCC1=O (stereo not drawn) [ketamine]
Swiss Webster male mice [2]
  immobility or distance swum versus vehicle, panel of currently available antidepressants: dp6FNE/prazosin (1 mg/kg) was the only agent that either significantly reduced immobility

## CNCCCN1c2ccccc2CCc2ccccc21 [DMI, desmethylimipramine]
Swiss Webster male mice [6]
  immobility versus vehicle: significant reduction in immobility
Swiss Webster male mice [2]; [15]
  immobility, % vehicle control: 94.8±7.1%
Swiss Webster male mice [2]; [16]
  distance swum versus vehicle: failed to affect immobility or distance swum
  immobility versus vehicle: failed to affect immobility or distance swum
Swiss Webster male mice [2]; acute i.p., dp6FNE 1, 3, 10 mg/kg with prazosin 0.2 mg/kg, DMI 10 mg/kg, FIG. 5
  effect in repeated open-space swim test: complete lack of effect
Swiss Webster male mice [2]
  immobility or distance swum versus vehicle, panel of currently available antidepressants: dp6FNE/prazosin (1 mg/kg) was the only agent that either significantly reduced immobility
Swiss Webster male mice [10]
  immobility, % vehicle control: 64.7±20.7%
  immobility versus vehicle: significantly reduced immobility
Swiss Webster male mice [11]; subacute i.p. DMI
  anorexia / sucrose intake after subacute antidepressant: anorexia and markedly reduced sucrose intakes

## Cc1ccc(N(CC2=NCCN2)c2cccc(O)c2)cc1 [Phentolamine, phentolamine]
[7]
  passage of the blood brain barrier / uptake by the brain: not taken up by the brain

## CNCCC(Oc1ccc(C(F)(F)F)cc1)c1ccccc1 (stereo not drawn) [fluoxetine]
Swiss Webster male mice [2]
  immobility or distance swum versus vehicle, panel of currently available antidepressants: dp6FNE/prazosin (1 mg/kg) was the only agent that either significantly reduced immobility
